{"source": "patent US10172842B2", "about": "“Sustained release oral dosage form containing dalfampridine” (PharmaDax Inc., priority 2015, dated 2019)", "origin": "cited, not measured here", "key": {"[1]": {"conditions": "in the absence of other risk factors"}, "[2]": {"conditions": "plasma concentrations lower than 13 ng/mL"}}}
{"compound": "Nc1ccncc1", "note": "[dalfampridine, 4-aminopyridine]", "values": [{"measurement": "plasma dalfampridine concentration considered a likely threshold for increased risk of seizure", "setting": "[1]", "value": "approximately 100 ng/mL"}, {"measurement": "changes in walking speed in MS patients", "setting": "[2]", "value": "low percentage changes in walking speed"}]}
